{"source": "paper PMC6977461", "about": "(Chemical Science, 2019)", "key": {"[1]": {"assay": "mouse plasma degradation assay (Methods MP1-MP3)", "type": "in vitro ADME", "conditions": "mouse plasma diluted 1/1 with PBS; mouse plasma/PBS pH 7.4 (1/1), 5 µM, 37 °C, acetonitrile quench, LC-MS extracted ion chromatogram; MP1 for 2-8, MP2 for 9-11, MP3 for 12-14; mean, n = 3; read-out: Mouse plasma t1/2 (converted)", "method": "The oligomer was then diluted 1/50 with a solution of plasma/PBS pH 7.4 (1/1) to afford a final concentration of 5μM and incubated at 37°C. […] (t = 0 min was determined using the reaction without plasma). The samples were frozen at -80°C before analysis. […] The supernatant was analyzed by LC-MS. The time course of oligomer degradation was determined by integrating the area of the peak in the extracted ion chromatogram. […] The oligomer was then diluted 1/50 with a solution of plasma/PBS pH 7.4 (1/1) to afford a final concentration of 5μM and incubated at 37°C. […] The oligomer was then diluted 1/50 with a solution of plasma/PBS pH 7.4 (1/1) to afford a final concentration of 5μM and incubated at 37°C. […] Animals. […] A standard chow diet (RM1 (E) 801492, SDS) and tap water were provided ad libitum. All animal protocols done by Physiogenex S.A.S were reviewed and approved by the local (Comité […] national ([…]"}, "GLP-1R": {"target": "GLP-1R (Homo sapiens, UniProt P43220)", "sequence (P43220 24-463)": "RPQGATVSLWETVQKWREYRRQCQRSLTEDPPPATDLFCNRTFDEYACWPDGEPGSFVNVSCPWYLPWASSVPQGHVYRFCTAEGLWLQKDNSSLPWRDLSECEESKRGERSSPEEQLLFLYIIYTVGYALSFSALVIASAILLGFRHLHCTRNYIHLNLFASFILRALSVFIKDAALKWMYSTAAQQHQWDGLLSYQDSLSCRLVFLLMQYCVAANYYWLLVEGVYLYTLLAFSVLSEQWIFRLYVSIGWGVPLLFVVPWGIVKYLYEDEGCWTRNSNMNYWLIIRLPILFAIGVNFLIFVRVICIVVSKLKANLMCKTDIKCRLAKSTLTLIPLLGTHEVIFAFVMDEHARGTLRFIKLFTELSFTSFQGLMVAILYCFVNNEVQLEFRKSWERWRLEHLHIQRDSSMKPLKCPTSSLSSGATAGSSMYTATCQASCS", "assay": "cAMP production functional assay in HEK293 cells transfected with GLP-1R (Method C1)", "type": "cell-based", "set-up": "host or cells: HEK-293T", "conditions": "for EC50: HEK-293T cells exogenously expressing human GLP-1R, cAMP by HTRF, 10 min at 37 °C, Method C1, mean, n = 3 (2: n = 6), read-out: EC50 (GLP-1R potency); for Potency (%), percentage of potency compared to GLP-1-NH2: from EC50 in HEK293 GLP-1R cAMP assay", "procedure": " HEK-293T cells (Multispan inc., lot#.DC1267-062017) were suspended in cell culture media\n(DMEM 1X + GlutaMAX (Gibco 31966-021)) complemented with FBS 10% (Sigma Aldrich\n βTC6 cells were suspended in HBSS buffer (Invitrogen) complemented with 20 mM HEPES (pH\nIn vitro pharmacology on HEK-293T cells (EC50: Method C1)\ncells (Multispan inc., lot#.DC1267-062017) was determined by measuring their effects on cAMP\nproduction using the HTRF detection method (performed by UREkA SARL). The cells were distributed\nin 384-well microplates at a density of 1.0x10^4 cells/well. Stock solutions of the test compounds or the\nreference agonist were prepared at a concentration of 1 mM in DMSO. Then, compounds to be tested\nwere diluted in cell culture media and transferred to the plate containing the cells to reach final assay"}, "mouse GLP-1 receptor [2]": {"target": "T1, mouse GLP-1 receptor (Mus musculus, UniProt O35659)", "T1 construct": "βTC6 cells which express GLP-1R endogenously; host or cells: βTC6 cells", "T1 sequence (O35659 22-463)": "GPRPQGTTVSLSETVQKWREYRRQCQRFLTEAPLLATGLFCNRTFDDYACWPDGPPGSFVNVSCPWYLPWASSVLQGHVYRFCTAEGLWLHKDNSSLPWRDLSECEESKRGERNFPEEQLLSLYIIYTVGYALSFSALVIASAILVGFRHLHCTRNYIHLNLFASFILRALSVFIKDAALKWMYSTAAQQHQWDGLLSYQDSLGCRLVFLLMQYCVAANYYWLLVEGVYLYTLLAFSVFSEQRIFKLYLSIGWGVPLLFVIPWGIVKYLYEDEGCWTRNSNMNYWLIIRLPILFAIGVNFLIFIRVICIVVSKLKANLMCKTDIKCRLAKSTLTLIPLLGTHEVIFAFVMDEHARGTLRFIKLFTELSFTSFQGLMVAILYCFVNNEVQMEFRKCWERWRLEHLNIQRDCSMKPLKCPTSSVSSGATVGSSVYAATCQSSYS", "assay": "radioligand binding assay, [125I]GLP-1(7-36), βTC6 cell membrane homogenates", "procedure": "In vitro pharmacology: Affinity (IC50)\nand 1% BSA. […] Following\nincubation, the samples are filtered rapidly under vacuum through glass fiber filters (GF/B, Packard)\npresoaked with 0.3% PEI and rinsed several times with an ice-cold buffer containing 50 mM Tris-HCl\nand 500 mM NaCl using a 96-sample cell harvester (Unifilter, Packard). The filters are dried then\ncounted for radioactivity in a scintillation counter (Topcount, Packard) using a scintillation cocktail\n(Microscint 0, Packard). The results are expressed as a percent inhibition of the control radioligand\nat several concentrations to obtain a competition curve from which its IC50 is calculated using"}, "mouse GLP-1 receptor [3]": {"target": "T1, mouse GLP-1 receptor", "assay": "cAMP production in βTC6 cells expressing GLP-1R endogenously (Method C2)", "type": "cell-based", "conditions": "for Potency (%), Table S1: from EC50 in βTC6 cAMP assay, footnote: compare to GLP-1-NH2 (2); for EC50: read-out: EC50 (GLP-1R potency), Table S1; for loss in potency relative to 3 (fold): figures for 6-8 match the βTC6 EC50 values of Table S1"}}, "data": [{"smiles": "CC[C@H](C)[C@H](NC(=O)[C@H](Cc1ccccc1)NC(=O)[C@H](CCC(=O)O)NC(=O)[C@H](CCCCN)NC(=O)[C@H](C)NC(=O)[C@H](C)NC(=O)[C@H](CCC(N)=O)NC(=O)CNC(=O)[C@H](CCC(=O)O)NC(=O)[C@H](CC(C)C)NC(=O)[C@H](Cc1ccc(O)cc1)NC(=O)[C@H](CO)NC(=O)[C@H](CO)NC(=O)[C@@H](NC(=O)[C@H](CC(=O)O)NC(=O)[C@H](CO)NC(=O)[C@@H](NC(=O)[C@H](Cc1ccccc1)NC(=O)[C@@H](NC(=O)CNC(=O)[C@H](CCC(=O)O)NC(=O)NC[C@H](C)NC(=O)[C@@H](N)Cc1c[nH]cn1)[C@@H](C)O)[C@@H](C)O)C(C)C)C(=O)N[C@@H](C)C(=O)N[C@@H](Cc1c[nH]c2ccccc12)C(=O)N[C@@H](CC(C)C)C(=O)N[C@H](C(=O)N[C@@H](CCCCN)C(=O)NCC(=O)N[C@@H](CCCNC(=N)N)C(=O)NCC(N)=O)C(C)C", "note": "[compound 3]", "values": [{"measurement": "half-life at 5 µM", "setting": "[1]", "result": 14.4, "unit": "min"}, {"measurement": "EC50", "setting": "GLP-1R", "result": 0.0027, "unit": "nM"}, {"measurement": "Potency (%), percentage of potency compared to GLP-1-NH2", "setting": "GLP-1R", "result": 117, "unit": "%"}, {"measurement": "IC50", "setting": "mouse GLP-1 receptor [2]", "result": 32, "unit": "nM"}, {"measurement": "Potency (%), Table S1", "setting": "mouse GLP-1 receptor [3]", "result": 70, "unit": "%"}, {"measurement": "EC50", "setting": "mouse GLP-1 receptor [3]", "result": 0.14, "unit": "nM"}]}, {"smiles": "CC[C@H](C)[C@H](NC(=O)[C@H](Cc1ccccc1)NC(=O)[C@H](CCC(=O)O)NC(=O)[C@H](CCCCN)NC(=O)[C@H](C)NC(=O)[C@H](C)NC(=O)[C@H](CCC(N)=O)NC(=O)CNC(=O)[C@H](CCC(=O)O)NC(=O)[C@H](CC(C)C)NC(=O)[C@H](Cc1ccc(O)cc1)NC(=O)[C@H](CO)NC(=O)[C@H](CO)NC(=O)[C@@H](NC(=O)[C@H](CC(=O)O)NC(=O)[C@H](CO)NC(=O)[C@@H](NC(=O)[C@H](Cc1ccccc1)NC(=O)[C@@H](NC(=O)CNC(=O)[C@H](CCC(=O)O)NC(=O)CC[C@H](C)NC(=O)[C@@H](N)Cc1c[nH]cn1)[C@@H](C)O)[C@@H](C)O)C(C)C)C(=O)N[C@@H](C)C(=O)N[C@@H](Cc1c[nH]c2ccccc12)C(=O)N[C@@H](CC(C)C)C(=O)N[C@H](C(=O)N[C@@H](CCCCN)C(=O)NCC(=O)N[C@@H](CCCNC(=N)N)C(=O)NCC(N)=O)C(C)C", "note": "[compound 4]", "values": [{"measurement": "half-life at 5 µM", "setting": "[1]", "result": 13.8, "unit": "min"}]}, {"smiles": "CC[C@H](C)[C@H](NC(=O)[C@H](Cc1ccccc1)NC(=O)[C@H](CCC(=O)O)NC(=O)[C@H](CCCCN)NC(=O)[C@H](C)NC(=O)[C@H](C)NC(=O)[C@H](CCC(N)=O)NC(=O)CNC(=O)[C@H](CCC(=O)O)NC(=O)[C@H](CC(C)C)NC(=O)[C@H](Cc1ccc(O)cc1)NC(=O)[C@H](CO)NC(=O)[C@H](CO)NC(=O)[C@@H](NC(=O)[C@H](CC(=O)O)NC(=O)[C@H](CO)NC(=O)[C@@H](NC(=O)[C@H](Cc1ccccc1)NC(=O)[C@@H](NC(=O)CNC(=O)[C@H](CCC(=O)O)NC(=O)OC[C@H](C)NC(=O)[C@@H](N)Cc1c[nH]cn1)[C@@H](C)O)[C@@H](C)O)C(C)C)C(=O)N[C@@H](C)C(=O)N[C@@H](Cc1c[nH]c2ccccc12)C(=O)N[C@@H](CC(C)C)C(=O)N[C@H](C(=O)N[C@@H](CCCCN)C(=O)NCC(=O)N[C@@H](CCCNC(=N)N)C(=O)NCC(N)=O)C(C)C", "note": "[compound 5]", "values": [{"measurement": "half-life at 5 µM", "setting": "[1]", "result": 12.6, "unit": "min"}, {"measurement": "Potency (%), Table S1", "setting": "mouse GLP-1 receptor [3]", "result": 13, "unit": "%"}, {"measurement": "EC50", "setting": "mouse GLP-1 receptor [3]", "result": 0.8, "unit": "nM"}]}, {"smiles": "CC[C@H](C)[C@H](NC(=O)[C@H](Cc1ccccc1)NC(=O)[C@H](CCC(=O)O)NC(=O)[C@H](CCCCN)NC(=O)[C@H](C)NC(=O)[C@H](C)NC(=O)[C@H](CCC(N)=O)NC(=O)CNC(=O)[C@H](CCC(=O)O)NC(=O)[C@H](CC(C)C)NC(=O)[C@H](Cc1ccc(O)cc1)NC(=O)[C@H](CO)NC(=O)[C@H](CO)NC(=O)[C@@H](NC(=O)[C@H](CC(=O)O)NC(=O)[C@H](CO)NC(=O)[C@@H](NC(=O)[C@H](Cc1ccccc1)NC(=O)[C@@H](NC(=O)CNC(=O)[C@H](CCC(=O)O)NC(=O)NC(C)CNC(=O)[C@@H](N)Cc1c[nH]cn1)[C@@H](C)O)[C@@H](C)O)C(C)C)C(=O)N[C@@H](C)C(=O)N[C@@H](Cc1c[nH]c2ccccc12)C(=O)N[C@@H](CC(C)C)C(=O)N[C@H](C(=O)N[C@@H](CCCCN)C(=O)NCC(=O)N[C@@H](CCCNC(=N)N)C(=O)NCC(N)=O)C(C)C", "note": "(stereo partly drawn) [compound 6]", "values": [{"measurement": "half-life at 5 µM", "setting": "[1]", "result": 22.2, "unit": "min"}, {"measurement": "EC50", "setting": "GLP-1R", "result": 0.012, "unit": "nM"}, {"measurement": "Potency (%), percentage of potency compared to GLP-1-NH2", "setting": "GLP-1R", "result": 25, "unit": "%"}, {"measurement": "loss in potency relative to 3 (fold)", "setting": "mouse GLP-1 receptor [3]", "result": 24, "unit": "fold"}, {"measurement": "Potency (%), Table S1", "setting": "mouse GLP-1 receptor [3]", "result": 3, "unit": "%"}, {"measurement": "EC50", "setting": "mouse GLP-1 receptor [3]", "result": 3.4, "unit": "nM"}]}, {"smiles": "CC[C@H](C)[C@H](NC(=O)[C@H](Cc1ccccc1)NC(=O)[C@H](CCC(=O)O)NC(=O)[C@H](CCCCN)NC(=O)[C@H](C)NC(=O)[C@H](C)NC(=O)[C@H](CCC(N)=O)NC(=O)CNC(=O)[C@H](CCC(=O)O)NC(=O)[C@H](CC(C)C)NC(=O)[C@H](Cc1ccc(O)cc1)NC(=O)[C@H](CO)NC(=O)[C@H](CO)NC(=O)[C@@H](NC(=O)[C@H](CC(=O)O)NC(=O)[C@H](CO)NC(=O)[C@@H](NC(=O)[C@H](Cc1ccccc1)NC(=O)[C@@H](NC(=O)CNC(=O)[C@H](CCC(=O)O)NC(=O)NCCNC(=O)[C@@H](N)Cc1c[nH]cn1)[C@@H](C)O)[C@@H](C)O)C(C)C)C(=O)N[C@@H](C)C(=O)N[C@@H](Cc1c[nH]c2ccccc12)C(=O)N[C@@H](CC(C)C)C(=O)N[C@H](C(=O)N[C@@H](CCCCN)C(=O)NCC(=O)N[C@@H](CCCNC(=N)N)C(=O)NCC(N)=O)C(C)C", "note": "[compound 7]", "values": [{"measurement": "half-life at 5 µM", "setting": "[1]", "result": 13.2, "unit": "min"}, {"measurement": "EC50", "setting": "GLP-1R", "result": 0.0053, "unit": "nM"}, {"measurement": "Potency (%), percentage of potency compared to GLP-1-NH2", "setting": "GLP-1R", "result": 59, "unit": "%"}, {"measurement": "loss in potency relative to 3 (fold)", "setting": "mouse GLP-1 receptor [3]", "result": 5, "unit": "fold"}, {"measurement": "Potency (%), Table S1", "setting": "mouse GLP-1 receptor [3]", "result": 13, "unit": "%"}, {"measurement": "EC50", "setting": "mouse GLP-1 receptor [3]", "result": 0.8, "unit": "nM"}]}, {"smiles": "CC[C@H](C)[C@H](NC(=O)[C@H](Cc1ccccc1)NC(=O)[C@H](CCC(=O)O)NC(=O)[C@H](CCCCN)NC(=O)[C@H](C)NC(=O)[C@H](C)NC(=O)[C@H](CCC(N)=O)NC(=O)CNC(=O)[C@H](CCC(=O)O)NC(=O)[C@H](CC(C)C)NC(=O)[C@H](Cc1ccc(O)cc1)NC(=O)[C@H](CO)NC(=O)[C@H](CO)NC(=O)[C@@H](NC(=O)[C@H](CC(=O)O)NC(=O)[C@H](CO)NC(=O)[C@@H](NC(=O)[C@H](Cc1ccccc1)NC(=O)[C@@H](NC(=O)CNC(=O)[C@H](CCC(=O)O)NC(=O)NC[C@@H](NC(=O)[C@@H](N)Cc1c[nH]cn1)C(C)C)[C@@H](C)O)[C@@H](C)O)C(C)C)C(=O)N[C@@H](C)C(=O)N[C@@H](Cc1c[nH]c2ccccc12)C(=O)N[C@@H](CC(C)C)C(=O)N[C@H](C(=O)N[C@@H](CCCCN)C(=O)NCC(=O)N[C@@H](CCCNC(=N)N)C(=O)NCC(N)=O)C(C)C", "note": "[compound 8]", "values": [{"measurement": "half-life at 5 µM", "setting": "[1]", "result": 18, "unit": "min"}, {"measurement": "EC50", "setting": "GLP-1R", "result": 2.12, "unit": "nM"}, {"measurement": "loss in potency relative to 3 (fold)", "setting": "mouse GLP-1 receptor [3]", "result": "> 1000", "unit": "fold"}, {"measurement": "Potency (%), Table S1", "setting": "mouse GLP-1 receptor [3]", "result": "< 0.01", "unit": "%"}, {"measurement": "EC50", "setting": "mouse GLP-1 receptor [3]", "result": "> 10000", "unit": "nM"}]}]}
